Data as given in ChEMBL document CHEMBL3621178, “Antidiabetic effect of novel benzenesulfonylureas as PPAR-γ agonists and their anticancer effect” (Bioorg Med Chem Lett, 2015).
Activity calls are given as the source filed them. No cut-off for these calls is given here.

Legend:
M14 = experiment: Growth inhibition of human M14 cells assessed as cell viability at 10 uM incubated for 48 hrs by sulforhodamine B assay; format: functional; settings: M14, 48 h, read-out: Activity
[1] = Growth inhibition of human MOLT4 cells assessed as cell viability at 10 uM incubated for 48 hrs by sulforhodamine B assay; format: functional; settings: MOLT-4, 48 h, read-out: Activity
A498 = experiment: Growth inhibition of human A498 cells assessed as cell viability at 10 uM incubated for 48 hrs by sulforhodamine B assay; format: functional; settings: A498, 48 h, read-out: Activity
[2] = Growth inhibition of human HOP92 cells assessed as cell viability at 10 uM incubated for 48 hrs by sulforhodamine B assay; format: functional; settings: HOP-92, 48 h, read-out: Activity
SNB-75 = experiment: Growth inhibition of human SNB75 cells assessed as cell viability at 10 uM incubated for 48 hrs by sulforhodamine B assay; format: functional; settings: SNB-75, 48 h, read-out: Activity
NCI-H460 = experiment: Growth inhibition of human NCI-H460 cells assessed as cell viability at 10 uM incubated for 48 hrs by sulforhodamine B assay; format: functional; settings: NCI-H460, 48 h, read-out: Activity
[3] = Growth inhibition of human RXF393 cells assessed as cell viability at 10 uM incubated for 48 hrs by sulforhodamine B assay; format: functional; settings: RXF 393, 48 h, read-out: Activity
[4] = Growth inhibition of human NCI60 cells assessed as cell viability at 10 uM incubated for 48 hrs by sulforhodamine B assay; format: functional; settings: NCI60, 48 h, read-out: Activity
[5] = Growth inhibition of human Hs 578T cells assessed as cell viability at 10 uM incubated for 48 hrs by sulforhodamine B assay; format: functional; settings: read-out: Activity
SW-620 = experiment: Growth inhibition of human SW620 cells assessed as cell viability at 10 uM incubated for 48 hrs by sulforhodamine B assay; format: functional; settings: SW-620, 48 h, read-out: Activity
SN12C = experiment: Growth inhibition of human SN12C cells assessed as cell viability at 10 uM incubated for 48 hrs by sulforhodamine B assay; format: functional; settings: read-out: Activity
OVCAR-8 = experiment: Growth inhibition of human OVCAR8 cells assessed as cell viability at 10 uM incubated for 48 hrs by sulforhodamine B assay; format: functional; settings: OVCAR-8, 48 h, read-out: Activity
SR = experiment: Growth inhibition of human SR cells assessed as cell viability at 10 uM incubated for 48 hrs by sulforhodamine B assay; format: functional; settings: read-out: Activity
OVCAR-4 = experiment: Growth inhibition of human OVCAR4 cells assessed as cell viability at 10 uM incubated for 48 hrs by sulforhodamine B assay; format: functional; settings: OVCAR-4, 48 h, read-out: Activity
[6] = Growth inhibition of human SF295 cells assessed as cell viability at 10 uM incubated for 48 hrs by sulforhodamine B assay; format: functional; settings: SF-295, 48 h, read-out: Activity
[7] = Growth inhibition of human COLO205 cells assessed as cell viability at 10 uM incubated for 48 hrs by sulforhodamine B assay; format: functional; settings: COLO 205, 48 h, read-out: Activity
KM12 = experiment: Growth inhibition of human KM12 cells assessed as cell viability at 10 uM incubated for 48 hrs by sulforhodamine B assay; format: functional; settings: KM12, 48 h, read-out: Activity
[8] = Growth inhibition of human SF539 cells assessed as cell viability at 10 uM incubated for 48 hrs by sulforhodamine B assay; format: functional; settings: SF-539, 48 h, read-out: Activity
HL-60(TB) = experiment: Growth inhibition of human HL-60(TB) cells assessed as cell viability at 10 uM incubated for 48 hrs by sulforhodamine B assay; format: functional; settings: HL-60, 48 h, read-out: Activity
[9] = Growth inhibition of human LOXIMVI cells assessed as cell viability at 10 uM incubated for 48 hrs by sulforhodamine B assay; format: functional; settings: LOX IMVI, read-out: Activity
[10] = Growth inhibition of human RPMI8226 cells assessed as cell viability at 10 uM incubated for 48 hrs by sulforhodamine B assay; format: functional; settings: RPMI-8226, 48 h, read-out: Activity
K562 = experiment: Growth inhibition of human K562 cells assessed as cell viability at 10 uM incubated for 48 hrs by sulforhodamine B assay; format: functional; settings: K562, 48 h, read-out: Activity
HOP-62 = experiment: Growth inhibition of human HOP62 cells assessed as cell viability at 10 uM incubated for 48 hrs by sulforhodamine B assay; format: functional; settings: HOP-62, 48 h, read-out: Activity
UACC-62 = experiment: Growth inhibition of human UACC62 cells assessed as cell viability at 10 uM incubated for 48 hrs by sulforhodamine B assay; format: functional; settings: UACC-62, 48 h, read-out: Activity
HCT-15 = experiment: Growth inhibition of human HCT15 cells assessed as cell viability at 10 uM incubated for 48 hrs by sulforhodamine B assay; format: functional; settings: HCT-15, 48 h, read-out: Activity
NCI-H322M = experiment: Growth inhibition of human NCI-H322M cells assessed as cell viability at 10 uM incubated for 48 hrs by sulforhodamine B assay; format: functional; settings: read-out: Activity
Rattus norvegicus = experiment: Antidiabetic activity in Wistar rat assessed as reduction in blood glucose level at 30 mg/kg, po dosed 30 mins before glucose challenge and measured 30 and 60 mins post glucose challenge by OGTT method; format: functional, organism-based
Malme-3M = experiment: Growth inhibition of human MALME-3M cells assessed as cell viability at 10 uM incubated for 48 hrs by sulforhodamine B assay; format: functional; settings: read-out: Activity
U-251 = experiment: Growth inhibition of human U251 cells assessed as cell viability at 10 uM incubated for 48 hrs by sulforhodamine B assay; format: functional; settings: U-251, 48 h, read-out: Activity
CAKI-1 = experiment: Growth inhibition of human CAKI-1 cells assessed as cell viability at 10 uM incubated for 48 hrs by sulforhodamine B assay; format: functional; settings: CAKI-1, 48 h, read-out: Activity
OVCAR-5 = experiment: Growth inhibition of human OVCAR5 cells assessed as cell viability at 10 uM incubated for 48 hrs by sulforhodamine B assay; format: functional; settings: OVCAR-5, 48 h, read-out: Activity
MDA-MB-468 = experiment: Growth inhibition of human MDA-MB-468 cells assessed as cell viability at 10 uM incubated for 48 hrs by sulforhodamine B assay; format: functional; settings: MDA-MB-468, 48 h, read-out: Activity
T47D = experiment: Growth inhibition of human T47D cells assessed as cell viability at 10 uM incubated for 48 hrs by sulforhodamine B assay; format: functional; settings: read-out: Activity
ACHN = experiment: Growth inhibition of human ACHN cells assessed as cell viability at 10 uM incubated for 48 hrs by sulforhodamine B assay; format: functional; settings: read-out: Activity
NCI-H226 = experiment: Growth inhibition of human NCI-H226 cells assessed as cell viability at 10 uM incubated for 48 hrs by sulforhodamine B assay; format: functional; settings: NCI-H226, 48 h, read-out: Activity
SK-MEL-28 = experiment: Growth inhibition of human SK-MEL-28 cells assessed as cell viability at 10 uM incubated for 48 hrs by sulforhodamine B assay; format: functional; settings: SK-MEL-28, 48 h, read-out: Activity

`COc1ccc(C2CC(c3cc4ccccc4oc3=O)=NN2c2ccc(S(=O)(=O)NC(=O)Nc3ccccc3C)cc2)cc1` (configuration not stated) showed a viability at 10 µM (M14) of 91.8%, a viability at 10 µM [1] of 84.6% and a viability at 10 µM (A498) of 94.7%. It also gave a viability at 10 µM [2] of 60.7%, a viability at 10 µM (SNB-75) of 78.3% and a viability at 10 µM (NCI-H460) of 99.8%. For the same compound, the viability at 10 µM [3] was 116%, the viability at 10 µM [4] was 93.4% and the viability at 10 µM [5] was 84.8%. The viability at 10 µM (SW-620) was 97.1%, the viability at 10 µM (SN12C) was 99.2% and the viability at 10 µM (OVCAR-8) was 99.9%. It also gave a viability at 10 µM (SR) of 80.4%, a viability at 10 µM (OVCAR-4) of 86.9% and a viability at 10 µM [6] of 93.8%. It also gave a viability at 10 µM [7] of 119%, a viability at 10 µM (KM12) of 102% and a viability at 10 µM [8] of 85.8%. The viability at 10 µM (HL-60(TB)) was 108%, the viability at 10 µM [9] was 92.6% and the viability at 10 µM [10] was 85.8%. The viability at 10 µM (K562) was 76.8%, the viability at 10 µM (HOP-62) was 87.3% and the viability at 10 µM (UACC-62) was 89.2%. The viability at 10 µM (HCT-15) was 95.8%, the viability at 10 µM (NCI-H322M) was 87.1% and the Activity (Rattus norvegicus) was “Active”. The viability at 10 µM (Malme-3M) was 104%, the viability at 10 µM (U-251) was 99.4% and the viability at 10 µM (CAKI-1) was 83.8%. The viability at 10 µM (OVCAR-5) was 83.1%, the viability at 10 µM (MDA-MB-468) was 100% and the viability at 10 µM (T47D) was 95.8%. The viability at 10 µM (ACHN) was 89.7%, the viability at 10 µM (NCI-H226) was 85.4% and the viability at 10 µM (SK-MEL-28) was 102%.
Compound `CN(C)c1ccc(C2CC(c3cc4ccccc4oc3=O)=NN2c2ccc(S(=O)(=O)NC(=O)NCc3ccccc3)cc2)cc1` (configuration not stated) has a viability at 10 µM (M14) of 55%, a viability at 10 µM [1] of 66.6% and a viability at 10 µM (A498) of 51.2%. The viability at 10 µM [2] was 49.1%, the viability at 10 µM (SNB-75) was 27.1% and the viability at 10 µM (NCI-H460) was 65.3%. For the same compound, the viability at 10 µM [3] was 85.4%, the viability at 10 µM [4] was 65.8% and the viability at 10 µM [5] was 67.1%. The viability at 10 µM (SW-620) was 73.1%, the viability at 10 µM (SN12C) was 77.8% and the viability at 10 µM (OVCAR-8) was 71.7%. It also gave a viability at 10 µM (SR) of 19.7%, a viability at 10 µM (OVCAR-4) of 52.8% and a viability at 10 µM [6] of 61.7%. The viability at 10 µM [7] was 78.2%, the viability at 10 µM (KM12) was 72.9% and the viability at 10 µM [8] was 70.8%. For the same compound, the viability at 10 µM (HL-60(TB)) was 66.4%, the viability at 10 µM [9] was 79.8% and the viability at 10 µM [10] was 66.1%. The viability at 10 µM (K562) was 59.5%, the viability at 10 µM (HOP-62) was 57.8% and the viability at 10 µM (UACC-62) was 37.6%. For the same compound, the viability at 10 µM (HCT-15) was 32.8%, the viability at 10 µM (NCI-H322M) was 79.6% and the Activity (Rattus norvegicus) was “Active”. For the same compound, the viability at 10 µM (Malme-3M) was 89.9%, the viability at 10 µM (U-251) was 67.8% and the viability at 10 µM (CAKI-1) was 49.4%. For the same compound, the viability at 10 µM (OVCAR-5) was 74.6%, the viability at 10 µM (MDA-MB-468) was 68.2% and the viability at 10 µM (T47D) was 64%. For the same compound, the viability at 10 µM (ACHN) was 58.2%, the viability at 10 µM (NCI-H226) was 74% and the viability at 10 µM (SK-MEL-28) was 57.4%.
Compound `COc1ccc(NC(=O)NS(=O)(=O)c2ccc(N3N=C(c4cc5ccccc5oc4=O)CC3c3ccc(N(C)C)cc3)cc2)cc1` (configuration not stated) has a viability at 10 µM (M14) of 95.6%, a viability at 10 µM [1] of 107% and a viability at 10 µM (A498) of 80.6%. It also gave a viability at 10 µM [2] of 79.8%, a viability at 10 µM (SNB-75) of 70.2% and a viability at 10 µM (NCI-H460) of 105%. For the same compound, the viability at 10 µM [3] was 105%, the viability at 10 µM [4] was 95.5% and the viability at 10 µM [5] was 84.9%. The viability at 10 µM (SW-620) was 103%, the viability at 10 µM (SN12C) was 97.1% and the viability at 10 µM (OVCAR-8) was 94.9%. For the same compound, the viability at 10 µM (SR) was 74.3%, the viability at 10 µM (OVCAR-4) was 92.4% and the viability at 10 µM [6] was 83.8%. It also gave a viability at 10 µM [7] of 115%, a viability at 10 µM (KM12) of 101% and a viability at 10 µM [8] of 91.5%. It also gave a viability at 10 µM (HL-60(TB)) of 130%, a viability at 10 µM [9] of 95.6% and a viability at 10 µM [10] of 98%. For the same compound, the viability at 10 µM (K562) was 114%, the viability at 10 µM (HOP-62) was 71.8% and the viability at 10 µM (UACC-62) was 88.6%. For the same compound, the viability at 10 µM (HCT-15) was 93.1%, the viability at 10 µM (NCI-H322M) was 99.9% and the viability at 10 µM (Malme-3M) was 81%. It also gave a viability at 10 µM (U-251) of 91.8%, a viability at 10 µM (CAKI-1) of 88.9% and a viability at 10 µM (OVCAR-5) of 102%. The viability at 10 µM (MDA-MB-468) was 104%, the viability at 10 µM (T47D) was 87.7% and the viability at 10 µM (ACHN) was 89.7%. The viability at 10 µM (NCI-H226) was 89.7% and the viability at 10 µM (SK-MEL-28) was 101%.
